Experimental data published in US20260223897A1, “SIAMENOSIDE I SWEETENED BEVERAGES WITH MOGROSIDE BLENDS” (The Coca-Cola Company, priority 2023, published 2026).

Assay: Taste of blends with siamenoside I, findings summarised in the description
Settings: for impact on bitterness in blends with siamenoside I: when present in certain amounts in blends with siamenoside I; for taste attributes when blended with siamenoside I vs siamenoside I only sweetened beverages: blended with siamenoside I in certain ratios; for perception of bitterness in blends: in certain blends

| Molecule | impact on bitterness in blends with siamenoside I | taste attributes when blended with siamenoside I vs siamenoside I only sweetened beverages | perception of bitterness in blends |
| --- | --- | --- | --- |
| 11-oxomogroside I | do not impact bitterness |  |  |
| C[C@H](CC[C@@H](O[C@@H]1O[C@H](CO[C@@H]2O[C@H](CO)[C@@H](O)[C@H](O)[C@H]2O)[C@@H](O)[C@H](O)[C@H]1O[C@@H]1O[C@H](CO)[C@@H](O)[C@H](O)[C@H]1O)C(C)(C)O)[C@H]1CC[C@@]2(C)C3CC=C4[C@@H](CC[C@H](O[C@@H]5O[C@H](CO)[C@@H](O[C@@H]6O[C@H](CO)[C@@H](O)[C@H](O)[C@H]6O)[C@H](O)[C@H]5O)C4(C)C)[C@]3(C)C(=O)C[C@]12C (stereo partly drawn) [11-Oxoisomogroside V, 11- Oxoisomogroside V] |  | less objectionable taste attributes |  |
| C[C@H](CC[C@@H](O[C@@H]1O[C@H](CO[C@@H]2O[C@H](CO)[C@@H](O)[C@H](O)[C@H]2O)[C@@H](O)[C@H](O)[C@H]1O)C(C)(C)O)[C@H]1CC[C@@]2(C)C3CC=C4[C@@H](CC[C@H](O)C4(C)C)[C@]3(C)C(=O)C[C@]12C (stereo partly drawn) [11-Oxomogroside IIA1] |  |  | increase the perception of bitterness |
| C[C@H](CC[C@@H](O)C(C)(C)O)[C@H]1CC[C@@]2(C)[C@@H]3CC=C4[C@@H](CC[C@H](O[C@@H]5O[C@H](CO[C@@H]6O[C@H](CO)[C@@H](O)[C@H](O)[C@H]6O)[C@@H](O)[C@H](O)[C@H]5O)C4(C)C)[C@]3(C)C(=O)C[C@]12C [11-Oxomogroside IIA2] |  |  | increase the perception of bitterness |
| C[C@H](CC[C@@H](O[C@@H]1O[C@H](CO)[C@@H](O)[C@H](O)[C@H]1O[C@@H]1O[C@H](CO)[C@@H](O)[C@H](O)[C@H]1O)C(C)(C)O)[C@H]1CC[C@@]2(C)[C@@H]3CC=C4[C@@H](CC[C@H](O)C4(C)C)[C@]3(C)C(=O)C[C@]12C [11-Oxomogroside IIA] |  |  | increase the perception of bitterness |
| C[C@H](CC[C@@H](O[C@@H]1O[C@H](CO)[C@@H](O)[C@H](O)[C@H]1O)C(C)(C)O)[C@H]1CC[C@@]2(C)C3CC=C4[C@@H](CC[C@H](O[C@@H]5O[C@H](CO)[C@@H](O)[C@H](O)[C@H]5O)C4(C)C)[C@]3(C)C(=O)C[C@]12C (stereo partly drawn) [11-Oxomogroside IIE] |  |  | increase the perception of bitterness |
| C[C@H](CC[C@@H](O[C@@H]1O[C@H](CO[C@@H]2O[C@H](CO)[C@@H](O)[C@H](O)[C@H]2O)[C@@H](O)[C@H](O)[C@H]1O)C(C)(C)O)[C@H]1CC[C@@]2(C)C3CC=C4[C@@H](CC[C@H](O[C@@H]5O[C@H](CO)[C@@H](O)[C@H](O)[C@H]5O)C4(C)C)[C@]3(C)C(=O)C[C@]12C (stereo partly drawn) [11-Oxomogroside III] |  | less objectionable taste attributes | increase the perception of bitterness |
| C[C@H](CC[C@@H](O[C@@H]1O[C@H](CO[C@@H]2O[C@H](CO)[C@@H](O)[C@H](O)[C@H]2O)[C@@H](O)[C@H](O)[C@H]1O[C@@H]1O[C@H](CO)[C@@H](O)[C@H](O)[C@H]1O)C(C)(C)O)[C@H]1CC[C@@]2(C)C3CC=C4[C@@H](CC[C@H](O[C@@H]5O[C@H](CO[C@@H]6O[C@H](CO)[C@@H](O)[C@H](O)[C@H]6O)[C@@H](O)[C@H](O)[C@H]5O)C4(C)C)[C@]3(C)[C@H](O)C[C@]12C (stereo partly drawn) [11-Oxomogroside V] |  | less objectionable taste attributes |  |
| C[C@H](CC[C@@H](O[C@@H]1O[C@H](CO[C@@H]2O[C@H](CO)[C@@H](O)[C@H](O)[C@H]2O)[C@@H](O)[C@H](O)[C@H]1O[C@@H]1O[C@H](CO)[C@@H](O)[C@H](O)[C@H]1O)C(C)(C)O)[C@H]1CC[C@@]2(C)C3CC=C4[C@@H](CC[C@H](O[C@@H]5O[C@H](CO)[C@@H](O[C@@H]6O[C@H](CO)[C@@H](O)[C@H](O)[C@H]6O)[C@H](O)[C@H]5O)C4(C)C)[C@]3(C)[C@H](O)C[C@]12C (stereo partly drawn) [Isomogroside V] |  | less objectionable taste attributes |  |
| C[C@H](CC[C@@H](O[C@@H]1O[C@H](CO)[C@@H](O)[C@H](O)[C@H]1O)C(C)(C)O)[C@H]1CC[C@@]2(C)C3CC=C4[C@@H](CC[C@H](O)C4(C)C)[C@]3(C)[C@H](O)C[C@]12C (stereo partly drawn) [Mogroside IA] |  |  | increase the perception of bitterness |
| C[C@H](CC[C@@H](O)C(C)(C)O)[C@H]1CC[C@@]2(C)C3CC=C4[C@@H](CC[C@H](O[C@@H]5O[C@H](CO)[C@@H](O)[C@H](O)[C@H]5O)C4(C)C)[C@]3(C)[C@H](O)C[C@]12C (stereo partly drawn) [Mogroside IE] |  |  | increase the perception of bitterness |
| C[C@H](CC[C@@H](O[C@@H]1O[C@H](CO[C@@H]2O[C@H](CO)[C@@H](O)[C@H](O)[C@H]2O)[C@@H](O)[C@H](O)[C@H]1O)C(C)(C)O)[C@H]1CC[C@@]2(C)C3CC=C4[C@@H](CC[C@H](O)C4(C)C)[C@]3(C)[C@H](O)C[C@]12C (stereo partly drawn) [Mogroside IIA1] |  |  | increase the perception of bitterness |
| C[C@H](CC[C@@H](O)C(C)(C)O)[C@H]1CC[C@@]2(C)[C@@H]3CC=C4[C@@H](CC[C@H](O[C@@H]5O[C@H](CO[C@@H]6O[C@H](CO)[C@@H](O)[C@H](O)[C@H]6O)[C@@H](O)[C@H](O)[C@H]5O)C4(C)C)[C@]3(C)[C@H](O)C[C@]12C [Mogroside IIA2] |  |  | increase the perception of bitterness |
| C[C@H](CC[C@@H](O[C@@H]1O[C@H](CO)[C@@H](O)[C@H](O)[C@H]1O[C@@H]1O[C@H](CO)[C@@H](O)[C@H](O)[C@H]1O)C(C)(C)O)[C@H]1CC[C@@]2(C)[C@@H]3CC=C4[C@@H](CC[C@H](O)C4(C)C)[C@]3(C)[C@H](O)C[C@]12C [Mogroside IIA] |  |  | increase the perception of bitterness |
| C[C@H](CC[C@@H](O[C@@H]1O[C@H](CO)[C@@H](O)[C@H](O)[C@H]1O)C(C)(C)O)[C@H]1CC[C@@]2(C)C3CC=C4[C@@H](CC[C@H](O[C@@H]5O[C@H](CO)[C@@H](O)[C@H](O)[C@H]5O)C4(C)C)[C@]3(C)[C@H](O)C[C@]12C (stereo partly drawn) [Mogroside IIE] |  | less objectionable taste attributes |  |
| C[C@H](CC[C@@H](O[C@@H]1O[C@H](CO)[C@@H](O)[C@H](O)[C@H]1O)C(C)(C)O)[C@H]1CC[C@@]2(C)C3CC=C4[C@@H](CC[C@H](O[C@@H]5O[C@H](CO[C@@H]6O[C@H](CO)[C@@H](O)[C@H](O)[C@H]6O)[C@@H](O)[C@H](O)[C@H]5O)C4(C)C)[C@]3(C)[C@H](O)C[C@]12C (stereo partly drawn) [Mogroside IIIA2] |  |  | increase the perception of bitterness |
| C[C@H](CC[C@@H](O[C@@H]1O[C@H](CO)[C@@H](O)[C@H](O)[C@H]1O[C@@H]1O[C@H](CO)[C@@H](O)[C@H](O)[C@H]1O)C(C)(C)O)[C@H]1CC[C@@]2(C)C3CC=C4[C@@H](CC[C@H](O[C@@H]5O[C@H](CO)[C@@H](O)[C@H](O)[C@H]5O)C4(C)C)[C@]3(C)[C@H](O)C[C@]12C (stereo partly drawn) [Mogroside IIIE] | do not impact bitterness |  |  |
| C[C@H](CC[C@@H](O[C@@H]1O[C@H](CO[C@@H]2O[C@H](CO)[C@@H](O)[C@H](O)[C@H]2O)[C@@H](O)[C@H](O)[C@H]1O)C(C)(C)O)[C@H]1CC[C@@]2(C)C3CC=C4[C@@H](CC[C@H](O[C@@H]5O[C@H](CO)[C@@H](O)[C@H](O)[C@H]5O)C4(C)C)[C@]3(C)[C@H](O)C[C@]12C (stereo partly drawn) [Mogroside III] |  | less objectionable taste attributes |  |
| C[C@H](CC[C@@H](O[C@@H]1O[C@H](CO[C@@H]2O[C@H](CO)[C@@H](O)[C@H](O)[C@H]2O)[C@@H](O)[C@H](O)[C@H]1O)C(C)(C)O)[C@H]1CC[C@@]2(C)C3CC=C4[C@@H](CC[C@H](O[C@@H]5O[C@H](CO[C@@H]6O[C@H](CO)[C@@H](O)[C@H](O)[C@H]6O)[C@@H](O)[C@H](O)[C@H]5O)C4(C)C)[C@]3(C)[C@H](O)C[C@]12C (stereo partly drawn) [Mogroside IVA] |  |  | increase the perception of bitterness |
| C[C@H](CC[C@@H](O[C@@H]1O[C@H](CO[C@@H]2O[C@H](CO)[C@@H](O)[C@H](O)[C@H]2O)[C@@H](O)[C@H](O)[C@H]1O[C@@H]1O[C@H](CO)[C@@H](O)[C@H](O)[C@H]1O)C(C)(C)O)[C@H]1CC[C@@]2(C)[C@@H]3CC=C4[C@@H](CC[C@H](O[C@@H]5O[C@H](CO[C@@H]6O[C@H](CO)[C@@H](O)[C@H](O)[C@H]6O)[C@@H](O)[C@H](O)[C@H]5O)C4(C)C)[C@]3(C)[C@H](O)C[C@]12C [Mogroside V] | do not impact bitterness |  |  |
